What all share (format): in vivo
Assay [1] concerns rice leafroller (Cnaphalocrocis medinalis). Nature of the assay: Insecticidal effect on rice leafroller (Test Example 3). The settings on record: 500 ppm; rice lamina immersed; third-instar larvae of rice leafroller; four days after inoculation; 25° C., humidity 70%. The procedure, abridged: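 Groups of 10 third-instar larvae, in triplicate, are placed on air-dried lamina resting on wet filter paper. Incubation runs four days at 25° C with 70% humidity before survivors and dead are tallied.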

Assay [2] concerns diamondback moth (Plutella xylostella). The assay is described as follows: Insecticidal effect on diamondback moth (Test Example 1). The settings on record: diamondback moth; judged by the mortality criterion of Test Example 1. In outline: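 Chinese cabbage seedlings carrying eggs laid by released adult moths were immersed in treatment, air-dried and held at 25° C. Hatched insects were counted six days after immersion, and mortality was calculated and scored against a fixed criterion. Three replicate groups of 10 insects were used.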

Assay [3] relates to common cutworm (Spodoptera Litura). The assay is described as follows: Insecticidal effect on common cutworm (Test Example 2). The settings on record: 500 ppm; cabbage leaf immersed; second-instar larvae of common cutworm; eight days after inoculation; 25° C. In outline:
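Air-dried treated material was placed in a closed dish with second-instar larvae and held at 25° C. Dead and live insects were counted eight days after inoculation, and mortality was calculated and scored against a fixed insecticidal-effect criterion. Three replicate groups of 10 insects were used.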

This note sets out measurements from patent US6362369B1, “Phthalic acid diamide derivatives fluorine-containing aniline compounds as starting material, agricultural and horticultural insecticides, and a method for application of the insecticides” (Nihon Nohyaku Co., Ltd., priority 1997, dated 2002).

Take `Cc1cc(OC(F)F)ccc1NC(=O)c1ccc(Cl)cc1C(=O)NC(C)C` [compound 180]: the “Insecticidal effect, Test Example 3” value in assay [1] is given as “A (100)”. Besides, the “Insecticidal effect, Test Example 1” value in assay [2] is recorded as “A (100)”. In addition, the “Insecticidal effect, Test Example 2” value in assay [3] is given as “A (100)”.
As to `CC(C)NC(=O)c1cccc(Cl)c1C(=O)Nc1ccc(C(F)(C(F)(F)F)C(F)(F)F)cc1` [compound 198], the “Insecticidal effect, Test Example 3” value in assay [1] is “A (100)”. Besides, the “Insecticidal effect, Test Example 1” value in assay [2] is on record as “A (100)”. In assay [3], the “Insecticidal effect, Test Example 2” value is “C (89-80)”.
Consider `CC(C)NC(=O)c1cccc(Cl)c1C(=O)Nc1ccc(OC(F)(F)C(F)OC(F)(F)C(F)(F)C(F)(F)F)cc1` (stereo not drawn) [compound 201], for which, in assay [1], the “Insecticidal effect, Test Example 3” value is on record as “A (100)”. Further, the “Insecticidal effect, Test Example 1” value in assay [2] was “A (100)”. Besides, the “Insecticidal effect, Test Example 2” value in assay [3] is recorded as “B (99-90)”.
`CC(C)NC(=O)c1cccc(Cl)c1C(=O)Nc1ccc(Cl)cc1F` [compound 212]: the “Insecticidal effect, Test Example 3” value in assay [1] is recorded as “A (100)”. Moreover, the “Insecticidal effect, Test Example 1” value in assay [2] is on record as “A (100)”. Moreover, the “Insecticidal effect, Test Example 2” value in assay [3] is on record as “D (79-50)”.
`Cc1cccc(NC(=O)c2c(Cl)cccc2C(=O)NC(C)C)c1C` [compound 213]: the “Insecticidal effect, Test Example 3” value in assay [1] is “A (100)”. Further, the “Insecticidal effect, Test Example 1” value in assay [2] was “A (100)”. Further, the “Insecticidal effect, Test Example 2” value in assay [3] was “A (100)”.
Consider `Cc1cc(Cl)ccc1NC(=O)c1c(Cl)cccc1C(=O)NC(C)C` [compound 214], for which the “Insecticidal effect, Test Example 3” value in assay [1] is “A (100)”. Also, in assay [2], the “Insecticidal effect, Test Example 1” value is recorded as “A (100)”. The “Insecticidal effect, Test Example 2” value in assay [3] is recorded as “A (100)”.
Turning to `COc1ccc(NC(=O)c2c(Cl)cccc2C(=O)NC(C)C)c(C)c1C` [compound 219], the “Insecticidal effect, Test Example 3” value in assay [1] is reported as “A (100)”. Moreover, in assay [2], the “Insecticidal effect, Test Example 1” value is reported as “A (100)”. Moreover, in assay [3], the “Insecticidal effect, Test Example 2” value is recorded as “D (79-50)”.
On to `Cc1cc(C(F)(F)F)ccc1NC(=O)c1c(Cl)cccc1C(=O)NC(C)C` [compound 221], for which the “Insecticidal effect, Test Example 3” value in assay [1] is given as “A (100)”. Further, the “Insecticidal effect, Test Example 1” value in assay [2] is “A (100)”. For the same molecule, in assay [3], the “Insecticidal effect, Test Example 2” value is on record as “A (100)”.
Consider `Cc1cc(OC(F)(F)C(Cl)(Cl)Cl)ccc1NC(=O)c1c(Cl)cccc1C(=O)NC(C)C` [compound 222], for which, in assay [1], the “Insecticidal effect, Test Example 3” value is reported as “A (100)”. Further, in assay [2], the “Insecticidal effect, Test Example 1” value is reported as “A (100)”. In addition, the “Insecticidal effect, Test Example 2” value in assay [3] is on record as “B (99-90)”.
Take `Cc1cc(C(F)(F)C(F)(F)F)ccc1NC(=O)c1c(Cl)cccc1C(=O)NC(C)C` [compound 223]: the “Insecticidal effect, Test Example 3” value in assay [1] was “A (100)”. Further, in assay [2], the “Insecticidal effect, Test Example 1” value is recorded as “A (100)”. The “Insecticidal effect, Test Example 2” value in assay [3] is given as “A (100)”.
In the case of `Cc1cc(C(F)(F)C(F)(F)C(F)(F)C(F)(F)F)ccc1NC(=O)c1c(Cl)cccc1C(=O)NC(C)C` [compound 225], the “Insecticidal effect, Test Example 3” value in assay [1] was “A (100)”. Moreover, the “Insecticidal effect, Test Example 1” value in assay [2] is on record as “A (100)”. Also, in assay [3], the “Insecticidal effect, Test Example 2” value is reported as “B (99-90)”.
For `Cc1cc(OC(F)(F)C(F)(F)Br)ccc1NC(=O)c1c(Cl)cccc1C(=O)NC(C)C` [compound 229], the “Insecticidal effect, Test Example 3” value in assay [1] was “A (100)”. The “Insecticidal effect, Test Example 1” value in assay [2] was “A (100)”. Besides, in assay [3], the “Insecticidal effect, Test Example 2” value is “D (79-50)”.
On to `Cc1cc(OCC(F)(F)C(F)F)ccc1NC(=O)c1c(Cl)cccc1C(=O)NC(C)C` [compound 230], for which the “Insecticidal effect, Test Example 3” value in assay [1] is reported as “A (100)”. The “Insecticidal effect, Test Example 1” value in assay [2] was “A (100)”. The “Insecticidal effect, Test Example 2” value in assay [3] is on record as “C (89-80)”.
Consider `Cc1cc(OC(F)F)ccc1NC(=O)c1c(Cl)cccc1C(=O)NC(C)C` [compound 236], for which, in assay [1], the “Insecticidal effect, Test Example 3” value is “A (100)”. For the same molecule, the “Insecticidal effect, Test Example 1” value in assay [2] was “A (100)”. Also, in assay [3], the “Insecticidal effect, Test Example 2” value was “A (100)”.
For the molecule `Cc1cc(OC(F)(F)C(F)Cl)ccc1NC(=O)c1c(Cl)cccc1C(=O)NC(C)C` (stereo not drawn) [compound 241], the “Insecticidal effect, Test Example 3” value in assay [1] is reported as “A (100)”. The “Insecticidal effect, Test Example 1” value in assay [2] is recorded as “A (100)”. Further, the “Insecticidal effect, Test Example 2” value in assay [3] is given as “B (99-90)”.
